Measured values taken from paper PMC8879095, “UHPLC-MS/MS Analysis of Antibiotics Transfer and Concentrations in Porcine Oral Fluid after Intramuscular Application” (Pharmaceuticals, 2022).
Read-outs that look alike come from different tables or passages of the source.

What was measured:
[1] = Antibiotic concentrations in porcine oral fluid after intramuscular application (UHPLC-MS/MS); format: in vivo; conditions: pigs, i.m.; for concentration in oral fluid at withdrawal period: at the end of the withdrawal period for tissues of each drug (Table 3); for time for which the analyte was present / quantified in oral fluid: sampling for 30 days
Description: All animals were born in the sow farm (8000 DanBred sows) located in Northern Poland, after crossing ♀(♂Landrace × ♀Yorskshire) × ♂Duroc. Piglets were weaned after 4 weeks of lactation with an average weight of 6 kg and then moved to the weaner stable (23,000 weaners). After the next 7 weeks, animals were transported to the 9000-places fattening farm with an average body weight of 28 kg, where the trial was performed. All farms in the aforementioned three-phase model used weekly batches and an all-in all-out system. Specialist veterinary and production management care were provided in each location.
For the purpose of the study, 240 immunologically castrated boars were divided into 8 groups, 30 animals in each pen. For the control group, 30 pigs were used in separate pens. Their initial body weight was between 40 and 60 kg. Pigs were housed at 20–25 °C. Fatteners were fed ad libitum with antimicrobial-free water and feed provided by feeders throughout the study. Before the experiment, water and feed were checked for antimicrobials, and no antimicrobial treatments were administered to these pigs before. All animals in one pen were treated due to the same health issue using disposable needles and the same drug and dosage. Pens were separated from each other with concrete walls. The drugs and dosage administered to each experimental group with an indication of withdrawal period for tissues are listed in Table 3. The oral fluid samples were collected using three cotton ropes (70 cm length with 1 cm diameter) in each pen suspended separately for 25 min on the front wall of the pen with bottoms at the pigs’ shoulder height, away from water and feed.
The research material was one pooled sample of oral fluid from 10 pigs, in triplicate, per pen. Ropes were removed immediately after collection. The first oral fluid sample was collected 24 h after the first injection. The collection of each subsequent sample took place at the same time (11:30 A.M.) for 35 consecutive days. Additionally, oral fluid samples were collected from pigs not treated with any antibiotics. Oral fluid from each pen was pooled into one 50-mL Falcon plastic tube and centrifuged at 9447× rcf for 15 min. Centrifuged material was transferred to a 15 mL plastic tube and frozen at −20 °C until analysis.
Before the analysis, the oral fluid samples were centrifuged at 9447× rcf. Next, an aliquot (1 mL) of oral fluid was placed into a 2 mL polypropylene centrifuge tube, and the 30 µL of the internal standard at the concentration of 2 µg/mL was added. For the extraction of analysed antibiotics, 600 µL of 0.5% formic acid was added, vortexed for 30 s and centrifuged for 10 min at 9447× rcf. Then, the supernatant was filtered through a […] PVDF filter into an amber glass vial before chromatographic analysis.
The mass spectrometry detection was operated in the positive ESI mode with multiple reaction monitoring (MRM).

[2] = parameters: method as in PMID 14651045, PMID 14651045; conditions: cited from earlier work
[3] = organic acid; cited from earlier work
[4] = parameters: method as in PMID 28042939; conditions: 21st day, i.m., cited from earlier work
[5] = male, (Landrace × Yorkshire) × Duroc crossbred (DanBred sows), pig, intramuscular, oral fluid, time 1 d (24 h after first injection), treatment period, read-out: Avarage Concentrations in oral fluid
[6] = male, (Landrace × Yorkshire) × Duroc crossbred (DanBred sows), pig, intramuscular, oral fluid, treatment period, read-out: Avarage Concentrations in oral fluid
[7] = male, (Landrace × Yorkshire) × Duroc crossbred (DanBred sows), pig, intramuscular, oral fluid, posttreatment, read-out: Avarage Concentrations in oral fluid
[8] = oral fluid, time 1 d (24 h after first injection), treatment period
[9] = oral fluid, time 9 d, posttreatment
[10] = oral fluid, time 10 d, posttreatment
[11] = oral fluid, time 11 d, posttreatment
[12] = oral fluid, time 12 d, posttreatment
[13] = oral fluid, time 13 d, posttreatment
[14] = oral fluid, time 14 d, posttreatment
[15] = oral fluid, time 15 d, posttreatment
[16] = oral fluid, time 16 d, posttreatment
[17] = oral fluid, time 17 d, posttreatment
[18] = oral fluid, time 18 d, posttreatment
[19] = oral fluid, time 19 d, posttreatment
[20] = oral fluid, time 20 d, posttreatment
[21] = oral fluid, time 21 d, posttreatment
[22] = oral fluid, time 22 d, posttreatment
[23] = oral fluid, time 23 d, posttreatment
[24] = oral fluid, time 24 d, posttreatment
[25] = oral fluid, time 25 d, posttreatment
[26] = oral fluid, time 26 d, posttreatment
[27] = oral fluid, time 27 d, posttreatment
[28] = oral fluid, time 28 d, posttreatment
[29] = oral fluid, time 29 d, posttreatment
[30] = oral fluid, time 30 d, posttreatment

Compound | concentration at 1 d [1, 5] | concentration at 2 d [1, 6] | concentration at 3 d [1, 6] | concentration at 4 d [1, 7] | concentration at 5 d [1, 7] | concentration in oral fluid at withdrawal period ([1]; oral fluid) | time for which the analyte was present / quantified in oral fluid ([1]; oral fluid) | Avarage Concentrations in oral fluid [1, 8] | Avarage Concentrations in oral fluid [1, 9] | Avarage Concentrations in oral fluid [1, 10] | Avarage Concentrations in oral fluid [1, 11] | Avarage Concentrations in oral fluid [1, 12] | Avarage Concentrations in oral fluid [1, 13] | Avarage Concentrations in oral fluid [1, 14] | Avarage Concentrations in oral fluid [1, 15] | Avarage Concentrations in oral fluid [1, 16] | Avarage Concentrations in oral fluid [1, 17] | Avarage Concentrations in oral fluid [1, 18] | Avarage Concentrations in oral fluid [1, 19] | Avarage Concentrations in oral fluid [1, 20] | further results
CC1(C)S[C@@H]2[C@H](NC(=O)[C@H](N)c3ccc(O)cc3)C(=O)N2[C@H]1C(=O)O [AMX, amoxicillin] | 11.3 ng/mL | 15.2 ± 2.3 ng/mL | 14.6 ± 1.8 ng/mL | 11.4 ± 1.4 ng/mL | 11.2 ± 1.6 ng/mL | below the limit of quantification | 5 days | 11.3 ± 1.6 µg/L | <LOQ | <LOQ | <LOQ * | <LOQ | <LOQ | <LOQ | <LOQ | <LOQ | <LOQ | <LOQ | <LOQ | <LOQ | Avarage Concentrations in oral fluid ([1]; oral fluid, time 6 d, posttreatment): <LOQ; Avarage Concentrations in oral fluid ([1]; oral fluid, time 7 d, posttreatment): <LOQ; Avarage Concentrations in oral fluid ([1]; oral fluid, time 8 d, posttreatment): <LOQ; Avarage Concentrations in oral fluid [1, 21]: <LOQ; Avarage Concentrations in oral fluid [1, 22]: <LOQ; Avarage Concentrations in oral fluid [1, 23]: <LOQ; Avarage Concentrations in oral fluid [1, 24]: <LOQ; Avarage Concentrations in oral fluid [1, 25]: <LOQ; Avarage Concentrations in oral fluid [1, 26]: <LOQ; Avarage Concentrations in oral fluid [1, 27]: <LOQ; Avarage Concentrations in oral fluid [1, 28]: <LOQ; Avarage Concentrations in oral fluid [1, 29]: <LOQ; Avarage Concentrations in oral fluid [1, 30]: <LOQ; distribution to oral fluid ([1]; conclusion in words): low penetration; binding degree to plasma proteins [2]: ≈ 25%
CC1(C)S[C@@H]2[C@H](NC(=O)Cc3ccccc3)C(=O)N2[C@H]1C(=O)O [PEN G, penicillin G] | 93 ng/mL | 50 ± 15 ng/mL | 11 ± 4.6 ng/mL | 16 ± 5.4 ng/mL | 5.2 ± 1.1 ng/mL | below the limit of quantification | 8 days | 93 ± 21 µg/L | <LOQ * | <LOQ | <LOQ | <LOQ | <LOQ | <LOQ | <LOQ | <LOQ | <LOQ | <LOQ | <LOQ | <LOQ | concentration at 6 d ([1]; male, (Landrace × Yorkshire) × Duroc crossbred (DanBred sows), pig, intramuscular, oral fluid, time 6 d, posttreatment, read-out: Avarage Concentrations in oral fluid): 52 ± 13 ng/mL; concentration at 7 d ([1]; male, (Landrace × Yorkshire) × Duroc crossbred (DanBred sows), pig, intramuscular, oral fluid, time 7 d, posttreatment, read-out: Avarage Concentrations in oral fluid): 32 ± 7.2 ng/mL; concentration at 8 d ([1]; male, (Landrace × Yorkshire) × Duroc crossbred (DanBred sows), pig, intramuscular, oral fluid, time 8 d, posttreatment, read-out: Avarage Concentrations in oral fluid): 6 ± 1.2 ng/mL; Avarage Concentrations in oral fluid [1, 21]: <LOQ; Avarage Concentrations in oral fluid [1, 22]: <LOQ; Avarage Concentrations in oral fluid [1, 23]: <LOQ; Avarage Concentrations in oral fluid [1, 24]: <LOQ; Avarage Concentrations in oral fluid [1, 25]: <LOQ; Avarage Concentrations in oral fluid [1, 26]: <LOQ; Avarage Concentrations in oral fluid [1, 27]: <LOQ; Avarage Concentrations in oral fluid [1, 28]: <LOQ; Avarage Concentrations in oral fluid [1, 29]: <LOQ; Avarage Concentrations in oral fluid [1, 30]: <LOQ; pKa [3]: 2.7
CN(C)[C@@H]1C(O)=C(C(N)=O)C(=O)[C@@]2(O)C(O)=C3C(=O)c4c(O)cccc4[C@@](C)(O)[C@H]3[C@H](O)[C@@H]12 [oxytetracycline] |  |  |  |  |  |  |  |  |  |  |  |  |  |  |  |  |  |  |  |  | concentration in oral fluid at the withdrawal period ([4]; group where all pigs were treated): 30.8 µg/kg; concentration in oral fluid at the withdrawal period ([4]; group where the antibiotic was administered to half of the animals in one pen): 11.6 µg/kg
